Test results taken from patent publication US5270165A, “Method of diagnosis of amyloidoses” (The Reagents of the University of California, priority 1991, dated 1993).

Test system: platelets
Assay: Secretion of PN-2/βAPP and granule markers from platelets after activation by agonists
Type: cell-based
Settings: for PN-2/βAPP percent secreted / LDH loss (percent), marker of platelet lysis / ADP/ATP percent secreted / LA-PF4 percent secreted: collagen 20 μg/ml or thrombin 1 U/ml, 10 minutes; for fraction of total platelet PN-2/βAPP secreted on activation: freshly washed platelets
Experimental: Secretion of PN-2/βAPP from platelets after activation by the agonists collagen or thrombin was studied. Briefly, fresh platelets washed by albumin density gradient centrifugation and gel filtration were incubated for 30 minutes at 37° C. in the absence or presence of the combined metabolic inhibitors antimycin A (15 μg/ml), 2-deoxy-D-glucose (30 mM), and D-gluconic acid δ-lactone (10 mM). The platelets were then placed into a cuvette 37° C. water bath with stirring at 1,200 rpm, and collagen (20 μg/ml or .varies.-thrombin (1 U/ml) was added. After 10 minutes, the samples were centrifuged at 12,000 x g for 4 minutes and supernatants were collected. Aliquots were removed and quantitated for PN-2/βAPP by incubation with ^125 I-EGF BP and analysis of complex formation by SDS-PAGE and autoradiography as in Example 15. Autoradiograms were aligned with dried gels; ^125 I-EGF BP:PN-2/βAPP complexes were located, excised and quantitated in a […]. Aliquots were also quantitated for platelet markers as follows: total adenine nucleotide (ADP/ATP) secretion was measured by the method of Homsen et al., Anal. Biochem., 46:489 (1972); low affinity platelet factor 4 (LA-PF4) secretion was quantitated by the method of Rucinski et al., Blood, 53:47 (1979); and cytosolic lactate dehydrogenase (LDH) loss was assessed by the procedure of Wroblewski and Ladue, Proc. Soc. Exper. Biol. Med., 77:389 (1978), the disclosures of which are hereby incorporated by reference. Values represent the percent secreted. Percent secreted was determined from the ratio of releasate in agonist treated sample to the total amount present in detergent lysate; nonstimulated platelet supernatants were subtracted from both. Values expressed are the mean ±SEM of three experiments, each consisting of combined platelets from two donors.

[1] = Inhibitor-Treated Platelets (antimycin A, 2-deoxy-D-glucose, D-gluconic acid δ-lactone)
[2] = Inhibitor-Treated Platelets, mean ±SEM
[3] = Washed Platelets, 37° C., mean ±SEM of three experiments

Substance | PN-2/βAPP percent secreted [1] [%] | LDH loss (percent), marker of platelet lysis (Inhibitor-Treated Platelets) [%] | ADP/ATP percent secreted [2] [%] | LA-PF4 percent secreted [2] [%] | PN-2/βAPP percent secreted [3] [%] | ADP/ATP percent secreted (Washed Platelets, mean ±SEM) [%] | LA-PF4 percent secreted (Washed Platelets, mean ±SEM) [%] | LDH loss (percent), marker of platelet lysis (Washed Platelets, mean ±SEM) [%] | fraction of total platelet PN-2/βAPP secreted on activation
Collagen | 0 | 0 | 1.3 ± 1.3 | 0 | 46.3 ± 7.7 | 45 ± 16 | 52 ± 11 | 1.3 ± 1.3 | approximately one-half
Thrombin | 0 | – | 0 | 0.4 ± 0.4 | 53.7 ± 7.6 | 68 ± 11 | 69 ± 6.2 | 0 | approximately one-half
